Source: patent publication US9050343B2 (ACADIA Pharmaceuticals Inc., priority 2007, dated 2015)
Values joined by “and” are separate entries in the source; they are usually repeats but may differ in a detail not shown here. Equal values may be shown once. Read-outs that look alike come from different tables or passages of the source.

Key:
serum prolactin levels = experiment: Prolactin assay (serum prolactin); format: in vivo, rats; conditions: for serum prolactin levels, dose response: compared to vehicle controls, pimavanserin up to 3 mg/kg, FIG. 20A
From the text: (§1) Male non-Swiss albino (NSA) mice and Sprague-Dawley (SD) rats (Harlan, San Diego, Calif.) served as subjects for the present investigation. Animals were housed in climate-controlled rooms on a 12/12 light dark cycle with on lights at 0600 hr. Rats were housed in groups of two and mice were housed in groups of eight. Food and water was available ad libitum except during experimental procedures.
Rats were deeply anesthetized with isoflurane and blood samples were obtained by cardiac puncture, allowed to clot and then centrifuged at 12,000 rpm for 10 min to yield serum for analysis. Serum prolactin levels were quantified using a commercially available enzyme immunoassay kit (ALPCO Diagnostics, Windham, N.H.).

[1] = system: amphetamine-induced hyperlocomotion in mice; experiment: Amphetamine-induced hyperlocomotor activity assay; format: in vivo; conditions: for suppression of amphetamine-induced hyperlocomotion: pimavanserin at 0.03 mg/kg sc; for suppression of amphetamine-induced hyperlocomotor activity: antipsychotic combined with a fixed dose of pimavanserin (0.03 mg/kg)
[2] = system: dizocilpine-induced hyperlocomotion in mice; experiment: Dizocilpine-induced hyperlocomotor activity assay and isobolographic analysis; format: in vivo; conditions: for ID50: agent alone, sc
prolactin levels = conditions: haloperidol-treated patients compared to risperidone patients
catalepsy in rats = experiment: Catalepsy assessment; format: in vivo
From the text: as §1
In order to generate dose-response curves raw CVs were converted to percentage maximum possible catalepsy (% MPC): % MPC=((CV drug or drug combination−CV vehicle control)/(120−CV vehicle control))*100. […] Each dose or dose combination was assessed in separate groups of rats.

[3] = haloperidol 2 mg per day alone or with pimavanserin 20 mg per day
alpha-adrenergic = experiment: Alpha-adrenergic antagonist activity
From the text: (§2) Further, the compound lacks potency at the 5HT2B receptor that controls gastrointestinal function and myocardial development.

[4] = Pimavanserin plasma pharmacokinetics fitted to 1-compartment model; format: in vivo
From the text: Initial parameters for the simulation were obtained by fitting mean plasma concentration-time data to a 1-compartment model (first order input, no lag time and first order elimination).

muscarinic receptors = experiment: Activity at muscarinic receptors
From the text: as §2

[5] = multiple oral doses; cited from earlier work
5HT2B receptor = 5HT2B receptor (Homo sapiens, UniProt P41595); experiment: Potency at 5HT2B receptor
From the text: […]. Further, the compound lacks potency at the 5HT2B receptor that controls gastrointestinal function and myocardial development.

[6] = system: radial arm maze in vivo mouse model of cognition; experiment: Radial arm maze model of cognition; set-up: species or system mice; conditions: pimavanserin (1 mg/kg) in combination with risperidone; FIG. 19
histaminergic receptors = experiment: Activity at histaminergic receptors
From the text: as §2

[7] = system: rat model of deficits in sensory motor gating; experiment: Sensory motor gating deficit induced by DOI; conditions: doses of 1 and 3 mg/kg SC
[8] = Brain levels of pimavanserin and haloperidol; conditions: Pim + Veh
[9] = Unbound fraction in plasma; format: in vitro ADME; conditions: parameter used for occupancy simulation, read-out: fu (unbound fraction in plasma)
From the text: CR may then be calculated using equation 2. CR=fu*Cpl(t), where fu is the free fraction of drug in plasma and Cpl(t) is the plasma concentration at time t.

[10] = Simulation of pimavanserin plasma concentration-time profile, 20 mg once daily; conditions: initial parameter for simulation, 20 mg once daily oral
[11] = system: DOI induced head twitches in the rat; experiment: DOI induced head twitches; conditions: oral doses of 3 and 10 mg/kg
[12] = system: auto-shaped response in mice; experiment: Learning of a simple auto-shaped response; conditions: intraperitoneal doses up to 32 mg/kg
[13] = system: in vivo mouse model of cognition; experiment: Novel object recognition assay; set-up: species or system mice; conditions: pimavanserin (0.3 mg/kg) in combination with risperidone or olanzapine; FIG. 18
Description: Compounds were administered to mice at one hour post-training (a time-point at which animals normally behaviorally discriminate between novel and familiar objects) and two hours post-training (a time-point at which these animals normally no longer discriminate between objects).

[14] = system: hyperactivity in mice induced by MK-801; experiment: MK-801 induced hyperactivity; conditions: oral doses of 3 and 10 mg/kg
[15] = system: schizophrenic subjects with an acute exacerbation of psychosis; experiment: Randomized double blind study in schizophrenic subjects: PANSS and CGI-S; format: in vivo, human
[16] = initial parameter for simulation, 5 mg once daily oral
[17] = combined with a fixed dose of pimavanserin (0.03 mg/kg)
[18] = 14th oral dose of 50 mg, 1-compartment model
[19] = plasma, 14th oral dose of 50 mg, 1-compartment model

Sequence of 5HT2B receptor (P41595 whole entry): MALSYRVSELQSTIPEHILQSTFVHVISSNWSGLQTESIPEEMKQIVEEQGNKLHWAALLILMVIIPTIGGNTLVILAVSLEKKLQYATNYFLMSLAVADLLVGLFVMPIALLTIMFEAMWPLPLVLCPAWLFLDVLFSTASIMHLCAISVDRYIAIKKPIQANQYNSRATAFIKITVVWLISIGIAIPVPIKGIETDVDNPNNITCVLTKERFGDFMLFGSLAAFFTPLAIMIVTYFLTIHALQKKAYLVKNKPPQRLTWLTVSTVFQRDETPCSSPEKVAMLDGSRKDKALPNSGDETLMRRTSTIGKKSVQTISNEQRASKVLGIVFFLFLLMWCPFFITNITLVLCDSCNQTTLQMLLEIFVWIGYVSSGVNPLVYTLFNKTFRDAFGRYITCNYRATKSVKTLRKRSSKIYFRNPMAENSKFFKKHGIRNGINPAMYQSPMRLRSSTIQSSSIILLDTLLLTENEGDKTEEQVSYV

With `O=C(CCCN1CCC(O)(c2ccc(Cl)cc2)CC1)c1ccc(F)cc1` [Haloperidol, haloperidol] the “serum prolactin levels, dose response” value (serum prolactin levels) was “dose-related increase in serum prolactin levels”, the magnitude of prolactinemia (serum prolactin levels; fixed dose haloperidol (0.1 mg/kg) or risperidone (0.01 mg/kg) in the presence of pimavanserin, FIG. 20B) was “significantly attenuated” and the serum prolactin levels (serum prolactin levels; haloperidol 0.1 mg/kg ip, vehicle 31±3) was 102 ± 12 ng/mL. The “suppression of amphetamine-induced hyperlocomotion” value ([1]; agent alone) was “dose dependently attenuated hyperactivity produced by amphetamine”, the ID50 ([1]; agent alone, sc, from % MPI) was 0.012 mg/kg and the “suppression of amphetamine-induced hyperlocomotor activity” value [1] was “enhanced suppression of amphetamine-induced hyperlocomotor activity”. For the same compound, the ID50 [1, 17] was 0.0013 mg/kg, the “shift of the dose-response curve” value [1, 17] was “significantly shifted to the left by a factor of approximately 10” and the ID50 [2] was 0.07 mg/kg. For the same compound, the PRL levels (prolactin levels) was “lower”, the “CD50 (dose that elicits 50% of maximum catalepsy)” value (catalepsy in rats; agent alone, ip) was 0.27 mg/kg and the CD50 (catalepsy in rats; in the presence of 1 mg/kg pimavanserin sc) was 0.24 mg/kg. It also gave a CD50 (catalepsy in rats; in the presence of 3 mg/kg pimavanserin sc) of 0.38 mg/kg, a CD50 (catalepsy in rats; in the presence of 10 mg/kg pimavanserin sc) of 0.53 mg/kg and a Mean weight gain [3] of 0.7657 kg. The Final mean weight ([3]; end of study) was 83.759 kg.

In the case of `CC(C)COc1ccc(CNC(=O)N(Cc2ccc(F)cc2)C2CCN(C)CC2)cc1` [Pimavanserin, N-(1-methylpiperidin-4-yl)-N-(4-fluorophenylmethyl)-N′-(4-(2-methylpropyloxy)phenylmethyl)carbamide], the alpha-adrenergic antagonist activities (alpha-adrenergic) is reported as “lacks the alpha-adrenergic antagonist activities”, the “Absorption rate constant (k01)” value [4, 18] is reported as 0.9197 h⁻¹ and the CL/F [4, 18] is reported as 6.4 L/h. For the same compound, the “Elimination rate constant (k10)” value [4, 18] was 0.0121 h⁻¹, the half-life ([4]; plasma, oral, 50 mg) was 57.3 h and the Cmax [4, 19] was 89.3 ng/mL. For the same compound, the Tmax [4, 19] was 4.77 h, the AUC(0-t) ([4]; plasma, 14th oral dose of 50 mg, 1-compartment model, read-out: AUC (0-24)ss) was 1890 ng·h/mL and the serum prolactin concentrations (serum prolactin levels; 3 mg/kg pimavanserin sc, 60 min, below the limit of detection, value of 15 ng/mL assigned, vehicle 31±3) was 15 ± 0 ng/mL. The “serum prolactin levels, dose response” value (serum prolactin levels) was “did not significantly elevate serum prolactin levels”, the “activity at the muscarinic receptors” value (muscarinic receptors) was “does not have significant activity” and the “oral clearance, previous reported value” [5] was 25.2 L/h. For the same compound, the “potency at the 5HT2B receptor” value (5HT2B receptor) was “lacks potency”, the “working memory errors after repeated trials” value [6] was “improved the cognitive deficit induced by risperidone” and the “activity at the histaminergic receptors” value (histaminergic receptors) was “does not have significant activity”. For the same compound, the “gating deficit induced by DOI” value [7] was “potently reversed the gating deficit induced by DOI”, the Pimavanserin brain levels [8] was 23 (±6) nmol/kg and the fraction unbound [9] was 0.05. The “suppression of amphetamine-induced hyperlocomotion” value ([1]; agent alone) was “failed to suppress hyperlocomotion produced by amphetamine”, the K01 [10] was 0.9197 L/h and the V/F [10] was 2182727 mL. The “DOI induced head twitches” value [11] was “effective”, the “learning of a simple auto-shaped response” value [12] was “failed to disrupt learning of a simple auto-shaped response” and the ID50 [2] was 0.09 mg/kg. For the same compound, the “percent novel object recognition” value [13] was “reverses novel object recognition impairment caused by risperidone and olanzapine”, the catalepsy (catalepsy in rats; doses up to 10 mg/kg) was “did not elicit catalepsy” and the “maximum CV (catalepsy value)” value (catalepsy in rats; doses up to 10 mg/kg, vehicle 6.8±0.9 sec) was 10.5 ± 2.4 s. For the same compound, the “attenuation of hyperactivity induced by MK-801” value [14] was “effective”.

In the case of `Cc1nc2n(c(=O)c1CCN1CCC(c3noc4cc(F)ccc34)CC1)CCCC2` [Risperidone, risperidone], the “effectiveness compared with other treatments” value ([15]; low dose risperidone (2 mg per day)) is reported as “significantly less effective than the other treatments”, the “mean change in PANNS score” value ([15]; risperidone 2 mg per day, alone or co-administered with pimavanserin 20 mg per day) is reported as 16.6 points and the K01 [16] is reported as 0.4403 h⁻¹. The V1/F [16] was 60222 mL and the ID50 [2] was 0.0045 mg/kg.

For `CC(N)Cc1ccccc1` (stereo not drawn) [amphetamine], the “total distance traveled (DT)” value ([1]; amphetamine 3 mg/kg ip, 15 min session, vehicle controls 876±42 cm) was 2764±230 cm.

In the case of `O=C1CCc2ccc(OCCCCN3CCN(c4cccc(Cl)c4Cl)CC3)cc2N1` [aripiprazole], the “suppression of amphetamine-induced hyperlocomotion” value ([1]; agent alone) is reported as “dose dependently attenuated hyperactivity produced by amphetamine”, the “suppression of amphetamine-induced hyperlocomotor activity” value [1] is reported as “enhanced suppression of amphetamine-induced hyperlocomotor activity” and the “shift of the dose-response curve” value [1, 17] is reported as “significantly shifted to the left”.

With `C[C@]12N[C@H](Cc3ccccc31)c1ccccc12` [dizocilpine] the “total distance traveled (DT)” value ([2]; dizocilpine 0.3 mg/kg ip, vehicle controls 792±40 cm, 649±67 cm) was 2227±116 cm and 2020±223 cm.

For `OCCOCCN1CCN(C2=Nc3ccccc3Sc3ccccc32)CC1` [quetiapine], the “suppression of amphetamine-induced hyperlocomotion” value ([1]; agent alone) was “dose dependently attenuated hyperactivity produced by amphetamine”, the “suppression of amphetamine-induced hyperlocomotor activity” value [1] was “enhanced suppression of amphetamine-induced hyperlocomotor activity” and the “shift of the dose-response curve” value [1, 17] was “shifted to the left”.
